Among the data in patent US6753337B2, “Alkynyl containing hydroxamic acid compounds as matrix metalloproteinase/tace inhibitors” (Wyeth Holdings Corporation, priority 1999, dated 2004) are IC50 values, retold here.

Holding throughout (type): biochemical
Assay [1] concerns the target T1, MMP-1 (Homo sapiens, UniProt P03956).
T1 sequence (P03956 100-469): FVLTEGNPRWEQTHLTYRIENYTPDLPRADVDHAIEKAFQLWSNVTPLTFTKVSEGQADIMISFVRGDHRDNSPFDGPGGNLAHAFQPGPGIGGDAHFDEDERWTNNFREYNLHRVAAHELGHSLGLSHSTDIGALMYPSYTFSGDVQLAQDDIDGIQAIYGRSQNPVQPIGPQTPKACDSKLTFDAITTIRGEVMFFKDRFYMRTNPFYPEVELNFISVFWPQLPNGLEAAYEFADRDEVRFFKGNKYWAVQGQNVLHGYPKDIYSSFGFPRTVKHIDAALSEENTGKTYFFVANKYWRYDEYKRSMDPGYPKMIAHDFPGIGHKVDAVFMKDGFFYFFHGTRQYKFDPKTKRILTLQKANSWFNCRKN
Put plainly: MMP-1 inhibition (thiopeptide or fluorescent peptide substrate). The note with it: read-out: MMP1 IC50.

Assay [2] addresses MMP-13 (Homo sapiens, UniProt P45452). Put plainly: MMP-13 inhibition (thiopeptide or fluorescent peptide substrate). The note with it: read-out: MMP13 IC50. The gist of the method: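 Human recombinant MMP-1, MMP-9 or MMP-13 was run either with a thiopeptide substrate plus DTNB (1 mM working dilution) in 50 mM HEPES pH 7.5, 5 mM CaCl2 (colorimetric), or with a quenched fluorescent peptide in HCBC buffer pH 7.0. Reactions started with substrate; the rate slope was compared with control by Dunnett's test.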

Assay [3] addresses TNF-α converting enzyme (TACE) (Homo sapiens, UniProt P78536). Put plainly: Test procedure for measuring TACE inhibition (fluorescent peptidyl substrate). The gist of the method:
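TACE (1 μg/mL final) preincubated 10 min at room temperature with 1 μM compound in 10 mM Tris pH 7.4, 10% glycerol, DMSO <1%. Treated rates tested against control by Dunnett's test (p<0.05).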

SMILES strings stand for the structures. pIC50: −log10 of the molar value. Counter-ions that a name gives are not always drawn.

Chain of TNF-α converting enzyme (TACE) (P78536 215-824): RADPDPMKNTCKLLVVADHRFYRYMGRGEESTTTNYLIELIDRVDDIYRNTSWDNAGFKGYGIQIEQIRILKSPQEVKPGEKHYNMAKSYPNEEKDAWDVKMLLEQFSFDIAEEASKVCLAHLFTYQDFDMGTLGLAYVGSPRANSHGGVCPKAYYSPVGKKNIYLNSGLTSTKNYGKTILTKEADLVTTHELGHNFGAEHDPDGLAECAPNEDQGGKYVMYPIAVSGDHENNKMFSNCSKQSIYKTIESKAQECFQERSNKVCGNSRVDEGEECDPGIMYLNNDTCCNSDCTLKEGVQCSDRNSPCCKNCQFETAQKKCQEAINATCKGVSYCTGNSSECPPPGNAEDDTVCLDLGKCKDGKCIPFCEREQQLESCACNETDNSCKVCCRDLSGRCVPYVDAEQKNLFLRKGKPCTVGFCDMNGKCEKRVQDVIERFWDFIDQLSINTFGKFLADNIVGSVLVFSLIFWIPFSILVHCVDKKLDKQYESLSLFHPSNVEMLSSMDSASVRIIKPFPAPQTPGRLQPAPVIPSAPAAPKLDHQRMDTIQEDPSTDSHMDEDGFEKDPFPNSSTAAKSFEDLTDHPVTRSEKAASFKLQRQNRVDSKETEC

For orientation: pIC50 means the negative decadic logarithm of the IC50, by convention in mol/L. For `CC#CCOc1ccc(S(=O)(=O)C2(C(=O)NO)CCN(C(=O)OC(C)(C)C)CC2)cc1` [Example 75, Tert-butyl 4-{[4-(2-butynyloxy)phenyl]sulfonyl}-4-[(hydroxyamino)carbonyl-]-1-piperidinecarboxalate], the pIC50 in assay [1] was 5.59; in assay [2], 6.55; in assay [3], 6.87.
Taken in the same sequence, the figures for `CC#CCOc1ccc(S(=O)(=O)C2(C(=O)NO)CCNCC2)cc1` [Example 76, 4-{[4-(2-butynyloxy)phenyl]sulfonyl}-N-hydroxy-4-piperidinecarboxamide hydrochloride] were 5.35, 5.40 and 6.70.
For the molecule `CC#CCOc1ccc(S(=O)(=O)C2(C(=O)NO)CCN(Cc3ccc(C(=O)OC)cc3)CC2)cc1` [Example 77, hydrochloride], the pIC50 in assay [1] was 5.66; in assay [2], 6.46; in assay [3], 6.94.
With `CC#CCOc1ccc(S(=O)(=O)C2(C(=O)NO)CCN(Cc3ccc(C(=O)O)cc3)CC2)cc1` [Example 78, 4-({4-{[4-(2-butynyloxy)phenyl]sulfonyl}-4-[(hydroxyamino)-carbonyl]-1-piperidinyl}methyl)benzoic acid hydrochloride], the values for the pIC50 in assay [1], in assay [2] and in assay [3] were 5.98, 7.13 and 7.19, respectively.
Taken in the same sequence, the figures for `CC#CCOc1ccc(S(=O)(=O)C2(C(=O)NO)CCN(Cc3ccc(C(N)=O)cc3)CC2)cc1` [Example 79, 1-[4-(Aminocarbonyl)benzyl]-4-{[4-(2-butynyloxy)phenyl]sulfonyl}-N-hydroxy-4-piperidinecarboxamide hydrochloride] were 5.62, 7.30 and 7.15.
Consider `CC#CCOc1ccc([S+]([O-])C2(C(=O)NO)CCN(C(=O)OC(C)(C)C)CC2)cc1` (stereo not drawn) [Example 80, tert-butyl 4-{[4-(but-2-ynyloxy)phenyl]sulfinyl}-4-[(hydroxyamino)carbonyl]piperidine-1-carboxalate], for which the pIC50 was 3.73 in assay [1], 7.40 in assay [2] and 7.05 in assay [3].
Taken in the same sequence, the figures for `CC#CCOc1ccc([S+]([O-])C2(C(=O)NO)CCNCC2)cc1` (stereo not drawn) [Example 81, 4-(4-(But-2-ynyloxy-benzenesulfinyl)-piperidine-4-carboxylic acid hydroxamide hydrochloride] were 5.73, 6.23 and 6.56.
Taken in the same sequence, the figures for `CC#CCOc1ccc([S+]([O-])C2(C(=O)NO)CCN(Cc3ccc(Br)cc3)CC2)cc1` (stereo not drawn) [Example 82, 1-(4-Bromo-benzyl)-4-(4-But-2-ynyloxy-benzenesulfinyl)-piperidine-4-carboxylic acid hydroxamide hydrochloride] were 3.59, 7.21 and 6.87.
